Test results: ChEMBL document CHEMBL1811895, “Regioselective synthesis of water-soluble monophosphate derivatives of combretastatin A-1” (J Nat Prod, 2011)

Assays:
[1] = system: NCI-H460; assay: Cytotoxicity against human NCI-H460 cells by SRB assay; type: functional
[2] = system: SK-OV-3; assay: Cytotoxicity against human SKOV3 cells by SRB assay; type: functional
[3] = system: DU-145; assay: Cytotoxicity against human DU145 cells by SRB assay; type: functional
[4] = Inhibition of tubulin polymerization in bovine brain after 20 mins by spectrophotometry; parameters: species or system Bos taurus

COc1cc(/C=C/c2ccc(OC)c(OP(=O)(O)O)c2O)cc(OC)c1OC
GI50 [1]: 0.336 µM
GI50 [2]: 0.681 µM
GI50 [3]: 0.52 µM

COc1ccc(/C=C/c2cc(OC)c(OC)c(OC)c2)c(OP(=O)(O)O)c1O
GI50 [1]: 1.55 µM
GI50 [2]: 0.465 µM
GI50 [3]: 2.13 µM

COc1ccc(/C=C/c2cc(OC)c(OC)c(OC)c2)c(O)c1O
GI50 [1]: 1.32 µM
GI50 [2]: 2.27 µM
IC50 [4]: 11 µM
GI50 [3]: 2.14 µM

COc1ccc(/C=C\c2cc(OC)c(OC)c(OC)c2)c(O)c1O [COMBRETASTATIN A-1]
GI50 [1]: 0.0153 µM
GI50 [2]: 0.0384 µM
IC50 [4]: 1.9 µM
GI50 [3]: 0.0326 µM

COc1cc(/C=C\c2ccc(OC)c(OP(=O)(O)O)c2O)cc(OC)c1OC
GI50 [1]: 0.0334 µM
GI50 [2]: 0.0026 µM
IC50 [4]: > 40 µM
GI50 [3]: 0.0155 µM

COc1ccc(/C=C\c2cc(OC)c(OC)c(OC)c2)c(OP(=O)(O)O)c1O
GI50 [1]: 0.00356 µM
GI50 [2]: 0.00164 µM
IC50 [4]: > 40 µM
GI50 [3]: 0.00277 µM

COc1cc(/C=C\c2ccc(OC)c(OP(=O)(O)O)c2OP(=O)(O)O)cc(OC)c1OC
GI50 [1]: 0.0133 µM
GI50 [2]: 0.00103 µM
IC50 [4]: > 40 µM
GI50 [3]: 0.00287 µM
